Our source for the inhibition in vivo values is ChEMBL document CHEMBL4725456, “Therapeutic Potential of Autotaxin Inhibitors in Treatment of Interstitial Lung Diseases” (ACS Med Chem Lett, 2020).

The test is described as follows: In vivo inhibition of ATX in rat assessed as reduction in plasma LPA levels at 5 mg/kg, po measured after 8 hrs by LC-MS analysis relative to control. The test is classed as functional.

Each structure is given as a SMILES string.

As for `CC(=O)N1CCN(c2ccc(CNc3ccc(OCc4cccc(C#N)c4)nn3)cc2)CC1`, the inhibition in vivo at 5 mg/kg came to 95.7%.

For the compound `COc1ccc(COc2ccc(NCc3ccc(N4CCN(C(C)=O)CC4)cc3)nn2)cn1`, the inhibition in vivo at 5 mg/kg stood at 98.3%.
